According to patent EP0112332B1, “VITAMIN D GLYCOSIDES” (THE GENERAL HOSPITAL CORPORATION, priority 1982, dated 1984):

Experiments:
[1] = tested on: Intestinal calcium transport; assay: Intestinal calcium transport by the everted gut sac technique after oral dosing of vitamin D deficient rats; format: in vivo; conditions: for I/O (inside Ca⁴⁵/outside Ca⁴⁵) ± S.D.: 24 hours later, vehicle 1.6 ± 0.3; for stimulating intestinal calcium absorption (result in words): summary of the table data, oral dosing of rats
Description: (§1) The vitamin D₃, 3β-glucoside vitamin D₃, 3α-glucoside and the vitamin D₃, 3β glucoside acetate were tested for biological activity. Male weanling rats from Holtzmann Company, Madison, Wisconsin, U.S.A., were fed a vitamin D deficient diet that was adequate in phosphorus and low in calcium (0.02%) for 3-1/2 weeks. Groups of five animals received orally either 4 µg, 1 µg, 0.5 µg, 0.25 µg of Vitamin D₃ -3β- glucoside, 1 µg Vitamin D₃ -3α- glucoside or 2 µg Vitamin D₃ -3β- glucoside acetate in 50 µl of 95% ethanol or vehicle alone. 24 hours later the animals were sacrificed and the small intestine and blood were collected. Intestinal calcium transport studies were performed by the everted gut sac technique, and blood was used for serum calcium determinations.

[2] = Serum calcium determination (bone calcium mobilization) after oral dosing of vitamin D deficient rats on low calcium diet; format: in vivo
Description: as §1

[3] = in vivo, dosed parenterally and daily; cited from earlier work

Compound | I/O (inside Ca⁴⁵/outside Ca⁴⁵) ± S.D. ([1]; 2 µg orally in 50 µl of 95% ethanol) | stimulating intestinal calcium absorption (result in words) [1] | Serum Calcium ± S.D. ([2]; 4 µg orally in 50 µl of 95% ethanol, 24 hours later, vehicle 4.3 ± 0.2) | stimulating bone calcium mobilization (result in words) ([2]; summary of the table data, oral dosing of rats) | I/O (inside Ca⁴⁵/outside Ca⁴⁵) ± S.D. ([1]; 0.25 µg orally in 50 µl of 95% ethanol) | I/O (inside Ca⁴⁵/outside Ca⁴⁵) ± S.D. ([1]; 0.5 µg orally in 50 µl of 95% ethanol) | I/O (inside Ca⁴⁵/outside Ca⁴⁵) ± S.D. ([1]; 1 µg orally in 50 µl of 95% ethanol) | I/O (inside Ca⁴⁵/outside Ca⁴⁵) ± S.D. ([1]; 4 µg orally in 50 µl of 95% ethanol, male weanling rats, vitamin D deficient low calcium diet) | times more potent than D₃ [3] | times more potent than the monohydroxy form of the vitamin [3]
C=C1CC[C@H](O[C@@H]2O[C@H](COC(C)=O)[C@@H](OC(C)=O)[C@H](OC(C)=O)[C@H]2OC(C)=O)C/C1=C/C=C1\CCC[C@]2(C)[C@@H]([C@H](C)CCCC(C)C)CC[C@@H]12 [Vitamin D₃ 3β- glucoside acetate, 9,10-secocholesta-5,7,10(19)-trien-3β-yl-2',3',4',6'-tetra-O-acetyl -β-D-glucopyranoside] | 1.7 ± 0.2 | appears inactive |  |  |  |  |  |  |  | 
C=C1CC[C@H](O[C@@H]2O[C@H](CO)[C@@H](O)[C@H](O)[C@H]2O)C/C1=C/C=C1\CCC[C@]2(C)[C@@H]([C@H](C)CCCC(C)C)CC[C@@H]12 [Vitamin D₃ 3β- glucoside, 9,10-secocholesta-5,7,10(19)triene-3β-yl -β-D-glucopyranoside] |  | capable of stimulating intestinal calcium absorption | 5.3 ± 0.2 | capable of stimulating | 2.0 ± 0.2 | 2.5 ± 0.2 | 3.6 ± 0.3 | 3.9 ± 0.2 |  | 
C=C1/C(=C\C=C2/CCC[C@]3(C)[C@@H]([C@H](C)CCCC(C)(C)O)CC[C@@H]23)C[C@@H](O)C[C@@H]1O [1α, 25-(OH)₂D₃] |  |  |  |  |  |  |  |  | 5-10 times | 2-5 times
